Laboratory results taken from ChEMBL document CHEMBL5729370 (2022).

target: T1, Mitogen-activated protein kinase kinase kinase 5 (Homo sapiens, UniProt Q99683); assay: HTRF KinEASE Assay: ASK1 was purchased from Thermofisher (Catalogue #PV4011), ATP was purchased from Sigma (Catalogue #A7699), HTRF® KinEASE™ Assay System was obtained from Cisbio (Bedford, Mass.). ½ Area plate was purchased from Perkin Elmer (Catalogue ##6005560). HTRF® KinEASE™-STK is a generic method for measuring serine/threonine kinase activities using a time-resolved fluorescence resonance energy transfer (TR-FRET) immunoassay. The IC50 value for each compound was determined in the presence of compound (various concentration from 0 to 10 μM) and a fixed amount of ATP and peptide substrates. The test compound, 1 μM STK3 peptide substrate, and 5 μM of ASK1 kinase are incubated with kinase reaction buffer containing 50 mM HEPES Ph 7.5, 0.01% BRIJ-35, 10 mM MgCl2, and 1 mM EGTA for 30 minutes. 100 μM ATP is added to start kinase reaction and incubated for 3 hours. The STK3-antibody labeled with Eu3+-Cryptate and 125 nM streptavidin-XL665 are mixed in a single addition with stop reagents provided by the Cisbio kit used to stop the kinase reaction. Fluorescence is detected using an Envision Multilabeled 2014 reader from PerkinElmer. The Fluorescence is measured at 615 nm (Cryptate) and 665 nm (XL665) and a ratio of 665 nm/615 nm is calculated for each well. The resulting TR-FRET is proportional to the phosphorylation level. Staurosporine was used as the positive control. IC50 was determined by Xlfit 5.3.; assay type: single protein
T1 sequence (Q99683 whole entry): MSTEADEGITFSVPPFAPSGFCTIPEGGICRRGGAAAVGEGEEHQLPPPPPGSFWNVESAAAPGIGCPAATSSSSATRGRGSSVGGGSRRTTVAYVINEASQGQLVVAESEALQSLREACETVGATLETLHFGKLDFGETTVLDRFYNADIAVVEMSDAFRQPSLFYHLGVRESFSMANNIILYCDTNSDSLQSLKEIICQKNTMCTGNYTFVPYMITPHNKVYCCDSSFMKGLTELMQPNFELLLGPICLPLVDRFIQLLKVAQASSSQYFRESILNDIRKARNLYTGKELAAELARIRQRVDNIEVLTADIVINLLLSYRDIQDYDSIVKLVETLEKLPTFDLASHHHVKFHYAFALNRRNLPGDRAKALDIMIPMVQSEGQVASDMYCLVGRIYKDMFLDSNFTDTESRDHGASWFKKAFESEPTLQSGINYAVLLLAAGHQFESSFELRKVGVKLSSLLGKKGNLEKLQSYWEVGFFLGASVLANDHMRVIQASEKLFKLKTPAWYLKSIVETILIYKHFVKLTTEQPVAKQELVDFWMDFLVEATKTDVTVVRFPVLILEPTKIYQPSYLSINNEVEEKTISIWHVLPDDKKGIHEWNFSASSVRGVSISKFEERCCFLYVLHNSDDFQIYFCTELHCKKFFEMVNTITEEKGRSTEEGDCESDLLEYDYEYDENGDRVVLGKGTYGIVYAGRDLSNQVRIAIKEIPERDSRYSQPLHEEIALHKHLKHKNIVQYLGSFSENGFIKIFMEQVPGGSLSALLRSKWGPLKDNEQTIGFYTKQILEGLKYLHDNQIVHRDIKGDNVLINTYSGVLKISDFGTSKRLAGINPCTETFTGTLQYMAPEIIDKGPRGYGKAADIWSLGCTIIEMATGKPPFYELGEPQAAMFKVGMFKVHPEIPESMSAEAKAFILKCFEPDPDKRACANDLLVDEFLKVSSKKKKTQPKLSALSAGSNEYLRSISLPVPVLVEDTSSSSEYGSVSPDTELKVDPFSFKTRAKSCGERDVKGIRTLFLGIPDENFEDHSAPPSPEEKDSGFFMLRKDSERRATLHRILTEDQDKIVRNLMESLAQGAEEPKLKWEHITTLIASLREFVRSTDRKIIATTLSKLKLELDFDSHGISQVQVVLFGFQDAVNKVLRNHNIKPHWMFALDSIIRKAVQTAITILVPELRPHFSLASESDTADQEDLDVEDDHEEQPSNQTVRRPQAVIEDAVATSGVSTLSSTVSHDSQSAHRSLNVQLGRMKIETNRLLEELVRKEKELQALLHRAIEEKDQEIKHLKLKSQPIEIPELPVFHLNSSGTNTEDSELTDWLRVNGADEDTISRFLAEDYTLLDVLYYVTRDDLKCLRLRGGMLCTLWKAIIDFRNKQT

Compound | IC50 [nM]
CCOC(=O)N1CCc2cc(OC)c(C(=O)Nc3cccc(-c4nnc5n4[C@H](C)CC5)n3)cc2C1 | < 1.25
CCOC(=O)N1CCc2cc(OC)c(C(=O)Nc3cccc(-c4nnc5n4CCCC5)n3)cc2C1 | 10 to 100
CCOC(=O)N1CCc2cnc(C(=O)Nc3cccc(-c4nnc5n4CCCC5)n3)cc2C1 | > 1000
CCOC(=O)N1CCc2cc(F)c(C(=O)Nc3cccc(-c4nnc5n4CCCC5)n3)cc2C1 | > 1000
CCOC(=O)N1CCc2cc(OC)c(C(=O)Nc3cccc(-c4nnc5n4C(C)(C)CC5)n3)cc2C1 | < 1.25
